Results reported in US8119687B2, “Derivatives of dioxan-2-alkyl carbamates, preparation thereof and application thereof in therapeutics” (Sanofi-Aventis, priority 2002, dated 2012).

Row | SMILES | melting point [°C]
1 | O=C(NCC[C@H]1OC[C@H](c2cccc3ccccc32)CO1)Oc1ccccc1 | 131 to 133
2 | O=C(NCCC[C@H]1OC[C@H](c2cccc3ccccc32)CO1)Oc1ccccc1 | 125 to 127
3 | COc1ccc2c(cccc2[C@H]2CO[C@H](CCNC(=O)Oc3ccc(Cl)cc3)OC2)c1 | 129 to 131
4 | COc1ccc2c(cccc2[C@H]2CO[C@H](CCCNC(=O)Oc3ccccc3)OC2)c1 | 128
5 | O=C(NCCC[C@H]1OC[C@H](c2cccc3cc(OCC4CC4)ccc32)CO1)Oc1ccc(Cl)cc1 | 159 to 162
6 | COc1ccc2cccc([C@H]3CO[C@H](CCCNC(=O)Oc4ccccc4)OC3)c2c1 | 151 to 153
7 | O=C(NCCC[C@H]1OC[C@H](c2ccc3ccccc3c2)CO1)Oc1ccccc1 | 130 to 131
8 | NC(=O)COC(=O)NCCC[C@H]1OC[C@H](c2ccc(Cl)c3ccccc32)CO1 [Compound No. 46, 2-Amino-2-oxoethyl trans-3-[5-(4-chloronaphthalen-1-yl)-1,3-dioxan-2-yl]propylcarbamate] | 176 to 178
9 | COc1ccc2c(cccc2[C@H]2CO[C@H](CCCNC(=O)OCC(=O)NC3CC3)OC2)c1 [Compound No. 61, 2-(Cyclopropylamino)-2-oxoethyl trans-3-[5-(6-methoxy-naphthalen-1-yl)-1,3-dioxan-2-yl]propylcarbamate] | 176
10 | O=C(NCCC[C@H]1OC[C@H](c2cccc3cc(OCC4CC4)ccc32)CO1)OCC(F)(F)F [Compound No. 68, 2,2,2-Trifluoroethyl trans-3-[5-(6-cyclopropylmethoxy-naphthalen-1-yl)-1,3-dioxan-2-yl]propylcarbamate] | 105 to 107
11 | NC(=O)COC(=O)NCCC[C@H]1OC[C@H](c2cccc3ccccc32)CO1 [compound 38, 2-amino-2-oxoethyl trans-3-[5-(naphthalen-1-yl)-1,3-dioxan-2-yl]propylcarbamate] | 112 to 114
12 | CNC(=O)COC(=O)NCC[C@H]1OC[C@H](c2cccc3ccccc32)CO1 [compound 39, 2-(methylamino)-2-oxoethyl trans-2-[5-(naphthalen-1-yl)-1,3-dioxan-2-yl]ethylcarbamate] | 86 to 88
13 | CNC(=O)COC(=O)NCCC[C@H]1OC[C@H](c2cccc3ccccc32)CO1 [compound 40, 2-(methylamino)-2-oxoethyl trans-3-[5-(naphthalen-1-yl)-1,3-dioxan-2-yl]propylcarbamate] | 154
14 | O=C(NCC[C@H]1OC[C@H](c2cccc3ccccc32)CO1)OCC(F)(F)F [compound 41, 2,2,2-trifluoroethyl trans-2-[5-(naphthalen-1-yl)-1,3-dioxan-2-yl]ethylcarbamate] | 111 to 113
15 | O=C(NCCC[C@H]1OC[C@H](c2cccc3ccccc32)CO1)OCC(F)(F)F [compound 42, 2,2,2-trifluoroethyl trans-3-[5-(naphthalen-1-yl)-1,3-dioxan-2-yl]propylcarbamate] | 89 to 92
16 | CNC(=O)COC(=O)NCCC[C@H]1OC[C@H](c2ccc(Cl)c3ccccc32)CO1 [compound 47, 2-(methylamino)-2-oxoethyl trans-3-[5-(4-chloro-naphthalen-1-yl)-1,3-dioxan-2-yl]propylcarbamate] | 190 to 192

Row | SMILES | melting point [°C]
17 | CNC(=O)COC(=O)NCCC[C@H]1OC[C@H](c2cccc3cc(Cl)ccc32)CO1 [compound 48, 2-(methylamino)-2-oxoethyl trans-3-[5-(6-chloro-naphthalen-1-yl)-1,3-dioxan-2-yl]propylcarbamate] | 182 to 184
18 | CNC(=O)COC(=O)NCC[C@H]1OC[C@H](c2cccc3cc(OC)ccc32)CO1 [compound 54, 2-(methylamino)-2-oxoethyl trans-2-[5-(6-methoxy-naphthalen-1-yl)-1,3-dioxan-2-yl]ethylcarbamate] | 136 to 138
19 | COc1ccc2c(cccc2[C@H]2CO[C@H](CCNC(=O)OCC(F)(F)F)OC2)c1 [compound 56, 2,2,2-trifluoroethyl trans-2-[5-(6-methoxynaphthalen-1-yl)-1,3-dioxan-2-yl]ethylcarbamate] | 93 to 95
20 | CNC(=O)COC(=O)NCCC[C@H]1OC[C@H](c2cccc3cc(OC)ccc32)CO1 [compound 57, 2-(methylamino)-2-oxoethyl trans-3-[5-(6-methoxy-naphthalen-1-yl)-1,3-dioxan-2-yl]propylcarbamate] | 128 to 130
21 | CCNC(=O)COC(=O)NCCC[C@H]1OC[C@H](c2cccc3cc(OC)ccc32)CO1 [compound 58, 2-(ethylamino)-2-oxoethyl trans-3-[5-(6-methoxy-naphthalen-1-yl)-1,3-dioxan-2-yl]propylcarbamate] | 170 to 172
22 | COc1ccc2c(cccc2[C@H]2CO[C@H](CCCNC(=O)OCC(=O)NCc3ccncc3)OC2)c1 [compound 60, 2-[(pyridin-4-yl)methylamino]-2-oxoethyl trans-3-[5-(6-methoxynaphthalen-1-yl)-1,3-dioxan-2-yl]propylcarbamate] | 152
23 | COc1ccc2c(cccc2[C@H]2CO[C@H](CCCNC(=O)OCC(F)(F)F)OC2)c1 [compound 62, 2,2,2-trifluoroethyl trans-3-[5-(6-methoxynaphthalen-1-yl)-1,3-dioxan-2-yl]propylcarbamate] | 111
24 | NC(=O)COC(=O)NCCC[C@H]1OC[C@H](c2cccc3cc(OCC4CC4)ccc32)CO1 [compound 66, 2-amino-2-oxoethyl trans-3-[5-(6-cyclopropylmethoxy-naphthalen-1-yl)-1,3-dioxan-2-yl]propylcarbamate] | 137 to 139
25 | NC(=O)COC(=O)NCCC[C@H]1OC[C@H](c2cccc3cc(O)ccc32)CO1 [compound 70, 2-amino-2-oxoethyl trans-3-[5-(6-hydroxynaphthalen-1-yl)-1,3-dioxan-2-yl]propylcarbamate] | 166 to 170
26 | CNC(=O)COC(=O)NCCC[C@H]1OC[C@H](c2cccc3cc(O)ccc32)CO1 [compound 71, 2-(methylamino)-2-oxoethyl trans-3-[5-(6-hydroxy-naphthalen-1-yl)-1,3-dioxan-2-yl]propylcarbamate] | 140 to 148
27 | COc1ccc2cccc([C@H]3CO[C@H](CCCNC(=O)OCC(N)=O)OC3)c2c1 [compound 72, 2-amino-2-oxoethyl trans-3-[5-(7-methoxynaphthalen-1-yl)-1,3-dioxan-2-yl]propylcarbamate] | 156 to 158
28 | CNC(=O)COC(=O)NCCC[C@H]1OC[C@H](c2cccc3ccc(OC)cc32)CO1 [compound 73, 2-(methylamino)-2-oxoethyl trans-3-[5-(7-methoxy-naphthalen-1-yl)-1,3-dioxan-2-yl]propylcarbamate] | 144 to 146
29 | COc1ccc2cccc([C@H]3CO[C@H](CCCNC(=O)OCC(F)(F)F)OC3)c2c1 [compound 74, 2,2,2-trifluoroethyl trans-3-[5-(7-methoxynaphthalen-1-yl)-1,3-dioxan-2-yl]propylcarbamate] | 93 to 96
30 | CNC(=O)COC(=O)NCCC[C@H]1OC[C@H](c2ccc3ccccc3c2)CO1 [compound 77, 2-(methylamino)-2-oxoethyl trans-3-[5-(naphthalen-2-yl)-1,3-dioxan-2-yl]propylcarbamate] | 144 to 146
31 | O=C(NCCC[C@H]1OC[C@H](c2ccc3ccccc3c2)CO1)OCC(F)(F)F [compound 78, 2,2,2-trifluoroethyl trans-3-[5-(naphthalen-2-yl)-1,3-dioxan-2-yl]propylcarbamate] | 130 to 132
